Experimental data reported in US9302999B2, “Substituted triazoles as herbicides” (E. I. DU PONT DE NEMOURS AND COMPANY, priority 2012, dated 2016).

Experiments:
Format in all cases: in vivo
[1] = system: goosegrass (Eleusine indica); experiment: Test F pre-/postemergence: goosegrass; details: Preemergence
Excerpt: (§1) Seeds of plant species selected from corn (Zea mays), soybean (Glycine max), velvetleaf (Abutilon theophrasti), lambsquarters (Chenopodium album), poinsettia, wild (wild poinsettia, Euphorbia heterophylla), pigweed, palmer (palmer pigweed, Amaranthus palmeri), waterhemp (common waterhemp, Amaranthus rudis), surinam grass (Brachiaria decumbens), crabgrass, Brazil (Brazilian crabgrass, Digitaria horizontalis), panicum, fall (fall panicum Panicum dichotomiflorum), crabgrass, large (large crabgrass, Digitaria sanguinalis), foxtail, giant (giant foxtail, Setaria faberii), foxtail, green (green foxtail Setaria viridis), goosegrass (Eleusine indica), ragweed (common ragweed, Ambrosia elatior), barnyardgrass (Echinochloa crus-galli), sandbur (southern sandbur, Cenchrus echinatus), arrowleaf sida (Sida rhombifolia), ryegrass, Italian (Italian ryegrass, Lolium multiflorum), dayflower, VA (Virginia (VA) dayflower, Commelina virginica), field bindweed (Convolvulus arvensis), cocklebur (common cocklebur, Xanthium strumarium), morningglory (Ipomoea coccinea), nightshade (eastern black nightshade, Solanum ptycanthum), kochia (Kochia scoparia), nutsedge, yellow (yellow nutsedge, Cyperus esculentus), johnsongrass (Sorghum halepense), smartweed (ladysthumb smartweed, Polygonum persicaria), and beggarticks (hairy beggarticks, Bidens pilosa), were planted into a silt loam soil and treated preemergence with test chemicals formulated in a non-phytotoxic solvent mixture which included a surfactant. At the same time, plants selected from these crop and weed species and also pigweed (Amaranthus retroflexus), waterhemp_RES1 (ALS/Triazine resistant common waterhemp, Amaranthus rudis) and waterhemp_RES2 (ALS/HPPD resistant common waterhemp, Amaranthus rudis) were planted in pots containing a planting medium comprising spaghnum peat moss, vermiculite, wetting agent and starter nutrients treated with postemergence applications of some of the test chemicals formulated in the same manner. Plants ranged in height from 2 to 18 cm for postemergence treatments (1- to 4-leaf stage).
(§2) Treated plants and controls were maintained in a greenhouse for 14 to 21 days, after which time all species were compared to controls and visually evaluated. Plant response ratings, summarized in Table E, are based on a scale of 0 to 100 where 0 is no effect and 100 is complete control. A dash (-) response means no test result.

[2] = system: barnyardgrass (Echinochloa crus-galli); experiment: Test F pre-/postemergence: barnyardgrass
Excerpt: as §1, §2

[3] = system: field bindweed (Convolvulus arvensis); experiment: Test F pre-/postemergence: field bindweed
Excerpt: as §1, §2

[4] = system: nightshade (eastern black nightshade, Solanum ptycanthum); experiment: Test F pre-/postemergence: nightshade; details: Preemergence
Excerpt: as §1, §2

[5] = system: crabgrass, Brazil (Brazilian crabgrass, Digitaria horizontalis); experiment: Test F pre-/postemergence: crabgrass, Brazil
Excerpt: as §1, §2

[6] = 16 g ai/ha, scale 0 to 100, 0 no effect, 100 complete control
[7] = 31 g ai/ha, scale 0 to 100, 0 no effect, 100 complete control
[8] = Preemergence, 16 g ai/ha, scale 0 to 100, 0 no effect, 100 complete control
[9] = Preemergence, 31 g ai/ha, scale 0 to 100, 0 no effect, 100 complete control
[10] = Preemergence, 62 g ai/ha, scale 0 to 100
[11] = Preemergence, 125 g ai/ha, scale 0 to 100
[12] = Preemergence, 250 g ai/ha, scale 0 to 100
[13] = Postemergence, 8 g ai/ha, scale 0 to 100
[14] = Postemergence, 16 g ai/ha, scale 0 to 100
[15] = Postemergence, 31 g ai/ha, scale 0 to 100
[16] = Postemergence, 62 g ai/ha, scale 0 to 100
[17] = Postemergence, 125 g ai/ha, scale 0 to 100

Row | SMILES | Plant response rating, Goosegrass [1, 6] | Plant response rating, Goosegrass [1, 7] | Plant response rating, Goosegrass ([1]; 62 g ai/ha, scale 0 to 100) | Plant response rating, Goosegrass ([1]; 125 g ai/ha, scale 0 to 100) | Plant response rating, Goosegrass ([1]; 250 g ai/ha, scale 0 to 100) | Plant response rating, Barnyardgrass [2, 8] | Plant response rating, Barnyardgrass [2, 9] | Plant response rating, Barnyardgrass [2, 10] | Plant response rating, Barnyardgrass [2, 11] | Plant response rating, Barnyardgrass [2, 12] | Plant response rating, Field Bindweed [3, 8] | Plant response rating, Field Bindweed [3, 9] | Plant response rating, Field Bindweed [3, 10] | Plant response rating, Field Bindweed [3, 11] | Plant response rating, Field Bindweed [3, 12] | Plant response rating, Nightshade [4, 6] | Plant response rating, Nightshade [4, 7] | Plant response rating, Nightshade ([4]; 125 g ai/ha, scale 0 to 100) | Plant response rating, Nightshade ([4]; 250 g ai/ha, scale 0 to 100) | other results
1 | COc1nn(-c2cccc(F)c2)nc1Cc1ccnc(C(F)(F)F)c1 [Compound 139] | 5 | 70 | 80 | 98 | 100 | 0 | 10 | 10 | 10 | 98 | 0 | 0 | 0 | 0 | 20 | 20 | 35 | 100 | 100 | 
2 | Cc1nn(-c2ccnc(Cl)c2)nc1Cc1ccnc(C(F)(F)F)c1 [Compound 141] |  |  |  |  |  |  |  |  |  |  |  |  |  |  |  |  |  |  |  | Plant response rating, Crabgrass, Brazil [5, 13]: 70; Plant response rating, Crabgrass, Brazil [5, 14]: 80; Plant response rating, Crabgrass, Brazil [5, 15]: 95; Plant response rating, Crabgrass, Brazil [5, 16]: 95; Plant response rating, Crabgrass, Brazil [5, 17]: 95; Plant response rating, Barnyardgrass [2, 13]: 10; Plant response rating, Barnyardgrass [2, 14]: 20; Plant response rating, Barnyardgrass [2, 15]: 20; Plant response rating, Barnyardgrass [2, 16]: 30; Plant response rating, Barnyardgrass [2, 17]: 40; Plant response rating, Field Bindweed [3, 13]: 50; Plant response rating, Field Bindweed [3, 14]: 60; Plant response rating, Field Bindweed [3, 15]: 70; Plant response rating, Field Bindweed [3, 16]: 80; Plant response rating, Field Bindweed [3, 17]: 85
3 | Cc1nn(-c2ccc(F)cc2F)nc1Oc1ccnc(C(F)(F)F)c1 [Compound 146] | 0 | 40 | 70 | 75 | 98 | 0 | 0 | 10 | 10 | 20 | 0 | 0 | 0 | 0 | 25 | 0 | 10 | 65 | 100 | 
4 | CCc1nn(-c2ccc(F)cc2)nc1Cc1ccnc(C(F)(F)F)c1 [Compound 154] | 10 | 95 | 95 | 100 | 100 | 0 | 5 | 85 | 90 | 100 | 0 | 0 | 5 | 35 | 95 | 0 | 10 | 90 | 100 | Plant response rating, Crabgrass, Brazil [5, 8]: 75; Plant response rating, Crabgrass, Brazil [5, 9]: 100; Plant response rating, Crabgrass, Brazil [5, 10]: 100; Plant response rating, Crabgrass, Brazil [5, 11]: 100; Plant response rating, Crabgrass, Brazil [5, 12]: 100
